Measurements taken from ChEMBL document CHEMBL1201862, “PubChem BioAssay data set” (2004).
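Test compounds were applied to cells in 96-well plates for 48 hours at 5 doses. GI50 is the concentration that inhibits growth by half.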 Active and inactive are the calls of the source. Cut-off read from the data, not from the text of the source: active = GI50 up to about 1.1 µM and inactive = higher.

How the values were obtained:
Experiment in all cases: inhibition of tumour cell growth, NCI panel, 48 h
SNB-75 = tested on: SNB-75
PC-3 = tested on: PC-3
U-251 = tested on: U-251
SK-MEL-2 = tested on: SK-MEL-2
OVCAR-8 = tested on: OVCAR-8
A549 = tested on: A549
OVCAR-5 = tested on: OVCAR-5
EKVX = tested on: EKVX
BT-549 = tested on: BT-549
SNB-19 = tested on: SNB-19
SK-MEL-5 = tested on: SK-MEL-5
SF-268 = tested on: SF-268
MDA-MB-435 = tested on: MDA-MB-435
HL-60 = tested on: HL-60
SF-539 = tested on: SF-539
SF-295 = tested on: SF-295
SN12C = tested on: SN12C
UACC-62 = tested on: UACC-62

SMILES | GI50 (SNB-75) | GI50 (PC-3) | GI50 (U-251) | GI50 (SK-MEL-2) | GI50 (OVCAR-8) | GI50 (A549) | GI50 (OVCAR-5) | GI50 (EKVX) | GI50 (BT-549) | GI50 (SNB-19) | GI50 (SK-MEL-5) | GI50 (SF-268) | GI50 (MDA-MB-435) | GI50 (HL-60) | GI50 (SF-539) | GI50 (SF-295) | GI50 (SN12C) | GI50 (UACC-62)
CCOC(=O)C1(C/C=C/CBr)CCc2ccccc2C1=O (configuration not stated) | 10.4 µM (inactive) | 15.7 µM (inactive) | 14.1 µM (inactive) | 14.1 µM (inactive) | 15.7 µM (inactive) | 14 µM (inactive) | 29 µM (inactive) | 27.5 µM (inactive) | 16.7 µM (inactive) | 14.4 µM (inactive) | 12 µM (inactive) | 18.5 µM (inactive) | 14.3 µM (inactive) | 6.3 µM (inactive) | 18.1 µM (inactive) | 17.3 µM (inactive) | 15.1 µM (inactive) | 10.6 µM (inactive)
CCOC(=O)/C(C(C)=O)=C(\OC(C)=O)c1ccncc1C(=O)O | > 100 µM (inactive) | > 100 µM (inactive) | > 100 µM (inactive) | > 100 µM (inactive) | > 100 µM (inactive) | > 100 µM (inactive) | > 100 µM (inactive) | > 100 µM (inactive) | > 100 µM (inactive) | > 100 µM (inactive) | – | > 100 µM (inactive) | > 100 µM (inactive) | > 100 µM (inactive) | > 100 µM (inactive) | > 100 µM (inactive) | > 100 µM (inactive) | > 100 µM (inactive)
O=C(O)C1C2C=CC(O2)C1C(=O)NCc1ccccn1 (configuration not stated) | > 100 µM (inactive) | > 100 µM (inactive) | > 100 µM (inactive) | > 100 µM (inactive) | > 100 µM (inactive) | > 100 µM (inactive) | > 100 µM (inactive) | > 100 µM (inactive) | > 100 µM (inactive) | > 100 µM (inactive) | > 100 µM (inactive) | > 100 µM (inactive) | > 100 µM (inactive) | > 100 µM (inactive) | > 100 µM (inactive) | > 100 µM (inactive) | > 100 µM (inactive) | > 100 µM (inactive)
CC(=O)c1c(C(F)(F)F)[n+]([O-])c2cc(Cl)c(Cl)cc2[n+]1[O-] | 1.07 µM (active) | 1.31 µM (inactive) | 1.24 µM (inactive) | 1.19 µM (inactive) | 0.531 µM (active) | 0.575 µM (active) | 1.63 µM (inactive) | 1.29 µM (inactive) | 0.211 µM (active) | 0.83 µM (active) | 0.796 µM (active) | 1.15 µM (inactive) | 1.3 µM (inactive) | 0.338 µM (active) | 1.15 µM (inactive) | 0.719 µM (active) | 1.12 µM (inactive) | 1.26 µM (inactive)
COC(=O)c1c(OC(C)=O)ccc2c1c1c(OC(C)=O)c3ccccc3c(OC(C)=O)c1n2C | 2.06 µM (inactive) | 30.4 µM (inactive) | 24.8 µM (inactive) | 17.3 µM (inactive) | 22.6 µM (inactive) | 29.9 µM (inactive) | 38.1 µM (inactive) | 10.1 µM (inactive) | 21.8 µM (inactive) | 39.4 µM (inactive) | 6.04 µM (inactive) | 22.6 µM (inactive) | 37.8 µM (inactive) | 22.1 µM (inactive) | 20.7 µM (inactive) | 21.2 µM (inactive) | 53.7 µM (inactive) | 17.9 µM (inactive)
CN(C)CCOc1ccc(-c2c(Oc3ccc(Cl)cc3)c(=O)oc3ccccc23)cc1 | 6.56 µM (inactive) | 6.64 µM (inactive) | 3.64 µM (inactive) | 7.59 µM (inactive) | > 24.5 µM (inactive) | 4.97 µM (inactive) | 15.8 µM (inactive) | 12.3 µM (inactive) | 15 µM (inactive) | 16.9 µM (inactive) | 2.01 µM (inactive) | 8.69 µM (inactive) | 2.67 µM (inactive) | 5.61 µM (inactive) | 9.84 µM (inactive) | 5.36 µM (inactive) | 13.7 µM (inactive) | 4.97 µM (inactive)
C/C(=N/S(=O)(=O)c1ccc(Cl)c(Cl)c1)OCC(C)(C)C | > 100 µM (inactive) | > 100 µM (inactive) | > 100 µM (inactive) | > 100 µM (inactive) | > 100 µM (inactive) | > 100 µM (inactive) | > 100 µM (inactive) | > 100 µM (inactive) | > 100 µM (inactive) | > 100 µM (inactive) | > 100 µM (inactive) | > 100 µM (inactive) | > 100 µM (inactive) | 6.98 µM (inactive) | > 100 µM (inactive) | > 100 µM (inactive) | > 100 µM (inactive) | > 100 µM (inactive)
CC(Cc1ccc(O)cn1)(NC(=O)c1ccccc1)C(=O)O (configuration not stated) | 40.4 µM (inactive) | > 100 µM (inactive) | > 100 µM (inactive) | > 100 µM (inactive) | > 100 µM (inactive) | > 100 µM (inactive) | > 100 µM (inactive) | > 100 µM (inactive) | > 100 µM (inactive) | > 100 µM (inactive) | > 100 µM (inactive) | > 100 µM (inactive) | > 100 µM (inactive) | > 100 µM (inactive) | > 100 µM (inactive) | > 100 µM (inactive) | – | > 100 µM (inactive)
